The values that follow come from patent US9708314B2, “Heterocyclic amide compound” (NISSAN CHEMICAL INDUSTRIES, LTD., priority 2013, dated 2017).

Each structure is given as a SMILES string.

Common to all, as to format: in vivo
For one data set, the system named is Lolium multiflorum Lam. Briefly: Test Example 4: herbicidal effect by application to foliage (diluvial soil, plastic box). As to conditions: application to foliage; for herbicidal effect, K (Lolium multiflorum Lam.): 320 g/ha. From the text:
(§1) 5 Herbicidal ratio of 90% or more (almost completely withered) 4 Herbicidal ratio of 70% or more and less than 90% 3 Herbicidal ratio of 40% or more and less than 70% 2 Herbicidal ratio of 20% or more and less than 40% 1 Herbicidal ratio of 5% or more and less than 20% 0 Herbicidal ratio of 5% or less (almost no effect) [Test Example 4] Herbicidal Effect Test by Application to Foliage Sterilized diluvial soil was placed in a plastic box having a length of 21 cm, a width of 13 cm, and a depth of 7 cm. Each of the seeds of Digitaria ciliaris, Setaria viridis, Echinochloa crus-galli var. crus-galli, Avena fatua, Alopecurus myosuroides, Lolium multiflorum Lam., Apera spica-venti., Abutilon theophrasti, Amaranthus retroflexus, Chenopodium album, Stellaria media, Galium spurium, Veronica persica, Zea mays, Glycine max, Oryza sativa, Triticum aestivum, Beta vulgaris ssp. vulgaris, and Brassica campestris L. was sowed in a spot-like manner and was covered with the soil of about 1.5 cm thick. Thereafter, the plants were grown in the greenhouse of 25° C. to 30° C. After the plants were grown for 14 days, the emulsion agent containing the compound of the present invention prepared in accordance with Formulation Example 2 was diluted with water so as to be a predetermined herbicide amount and the diluted compound was uniformly applied to a stem and leaf part with a small-size spray. Three weeks after the herbicide application, effects on each plant were investigated in accordance with the criteria of Test Example 1. A: Echinochloa oryzicola Vasing., B: Scirpus juncoides, C: Monochoria vaginalis, D: Leptochloa chinensis, E: Cyperus difformis, F: Digitaria ciliaris, G: Setaria viridis, H: Echinochloa crus-galli var. crus-galli, I: Avena fatua, J: Alopecurus myosuroides, K: Lolium multiflorum Lam., L: Apera spica-venti., M: Abutilon theophrasti, N: Amaranthus retroflexus, O: Chenopodium album, P: Stellaria media, Q: Galium spurium, R: Veronica persica, a: transplanted Oryza sativa, b: directly sowed Oryza sativa, c: Zea mays, d: Glycine max, e: Triticum aestivum, f: Beta vulgaris ssp. vulgaris, and g: Brassica campestris L. The application herbicide amount (g/ha) means an amount that a concentration is adjusted so that, when an application amount is converted into per hectare (1 ha), the herbicide is applied by the number of grams (g) of the described value.

A further data set deals with Apera spica-venti. Described as above. The following applies: application to foliage; for herbicidal effect, L (Apera spica-venti.): 320 g/ha.
Text: as §1

A further data set relates to Alopecurus myosuroides. The description is as above. The following applies: application to foliage; for herbicidal effect, J (Alopecurus myosuroides): 320 g/ha.
Text: as §1

In the next data set the test system is Chenopodium album. The description is as above. As to conditions: application to foliage; for herbicidal effect, O (Chenopodium album): 320 g/ha.
Text: as §1

The test system of the next data set is Digitaria ciliaris. Described as above. The following applies: application to foliage; for herbicidal effect, F (Digitaria ciliaris): 320 g/ha.
Text: as §1

The next data set concerns Galium spurium. Described as above. The following applies: application to foliage; for herbicidal effect, Q (Galium spurium): 320 g/ha.
Text: as §1

In another data set the test system is Amaranthus retroflexus. The data set is described as above. As to conditions: application to foliage; for herbicidal effect, N (Amaranthus retroflexus): 320 g/ha.
Text: as §1

A further data set relates to Setaria viridis. The description is as above. The following applies: application to foliage; for herbicidal effect, G (Setaria viridis): 320 g/ha.
Text: as §1

In data set [1] the test system is Echinochloa crus-galli var. crus-galli. The description is as above. The following applies: application to foliage; for herbicidal effect, H (Echinochloa crus-galli var. crus-galli): 320 g/ha.
Text: as §1

The test system of another data set is Veronica persica. The data set is described as above. As to conditions: application to foliage; for herbicidal effect, R (Veronica persica): 320 g/ha.
Text: as §1

The test system of another data set is Stellaria media. The data set is described as above. As to conditions: application to foliage; for herbicidal effect, P (Stellaria media): 320 g/ha.
Text: as §1

In a further data set the test system is Abutilon theophrasti. The data set is described as above. The following applies: application to foliage; for herbicidal effect, M (Abutilon theophrasti): 320 g/ha.
Text: as §1

A further data set relates to Avena fatua. The data set is described as above. The following applies: application to foliage; for herbicidal effect, I (Avena fatua): 320 g/ha.
Text: as §1

The subject of another data set is Brassica campestris L. Kind of data set: Test Example 4: effect on crop by application to foliage (diluvial soil, plastic box). The following applies: application to foliage; for effect on crop, g (Brassica campestris L.): 320 g/ha. In outline: (§2)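 Emulsion-formulated compound, diluted to a predetermined g/ha dose, applied by small sprayer to leaves and stems of 14-day-old seedlings grown in sterilized diluvial soil. Effect rated on 0–5 herbicidal-ratio scale three weeks on.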

Data set [2] relates to directly sowed Oryza sativa. The description is as above. The following applies: application to foliage; for effect on crop, d (directly sowed Oryza sativa): 320 g/ha. In outline: as §2
The next data set concerns Glycine max. The description is as above. The following applies: application to foliage; for effect on crop, c (Glycine max): 320 g/ha. In outline: as §2
The next data set deals with Triticum aestivum. The description is as above. As to conditions: application to foliage; for effect on crop, e (Triticum aestivum): 320 g/ha. In outline: as §2
The subject of another data set is Zea mays. The data set is described as above. The following applies: application to foliage; for effect on crop, b (Zea mays): 320 g/ha. In short, it runs like this:
as §2

Data set [3] concerns Beta vulgaris ssp. vulgaris. Described as above. The following applies: application to foliage; for effect on crop, f (Beta vulgaris ssp. vulgaris): 320 g/ha. In outline:
as §2

The mark [4] stands for this setting: application herbicide amount 320 g/ha.

With `Cc1nnc(NC(=O)c2ccc(C(F)(F)F)n3c(=O)n(Cc4ccccc4)nc23)o1` [6-006], in the data set with Lolium multiflorum Lam., the “herbicidal effect, K (Lolium multiflorum Lam.)” value is reported as 0 (Herbicidal ratio of 5% or less (almost no effect)). In the data set on Apera spica-venti., the “herbicidal effect, L (Apera spica-venti.)” value was 0 (Herbicidal ratio of 5% or less (almost no effect)). The “herbicidal effect, J (Alopecurus myosuroides)” value in the data set with Alopecurus myosuroides is given as 0 (Herbicidal ratio of 5% or less (almost no effect)). The “herbicidal effect, O (Chenopodium album)” value in the data set on Chenopodium album is 3 (Herbicidal ratio of 40% or more and less than 70%). For the same compound, the “herbicidal effect, F (Digitaria ciliaris)” value in the data set with Digitaria ciliaris is reported as 0 (Herbicidal ratio of 5% or less (almost no effect)). Also, the “herbicidal effect, Q (Galium spurium)” value with Galium spurium is listed as 0 (Herbicidal ratio of 5% or less (almost no effect)). The “herbicidal effect, N (Amaranthus retroflexus)” value in the data set on Amaranthus retroflexus is recorded as 0 (Herbicidal ratio of 5% or less (almost no effect)). Moreover, the “herbicidal effect, G (Setaria viridis)” value in the data set with Setaria viridis is 0 (Herbicidal ratio of 5% or less (almost no effect)). Also, the “herbicidal effect, H (Echinochloa crus-galli var. crus-galli)” value in data set [1] is 0 (Herbicidal ratio of 5% or less (almost no effect)). In the data set on Veronica persica, the “herbicidal effect, R (Veronica persica)” value is 1 (Herbicidal ratio of 5% or more and less than 20%). Moreover, the “herbicidal effect, P (Stellaria media)” value with Stellaria media was 1 (Herbicidal ratio of 5% or more and less than 20%). Moreover, in the data set with Abutilon theophrasti, the “herbicidal effect, M (Abutilon theophrasti)” value is 1 (Herbicidal ratio of 5% or more and less than 20%). For the same compound, the “herbicidal effect, I (Avena fatua)” value with Avena fatua is 0 (Herbicidal ratio of 5% or less (almost no effect)). Besides, the “effect on crop, g (Brassica campestris L.)” value in the data set with Brassica campestris L. is 0 (Herbicidal ratio of 5% or less (almost no effect)). For the same compound, in [2], the “effect on crop, d (directly sowed Oryza sativa)” value is given as 0 (Herbicidal ratio of 5% or less (almost no effect)). Also, the “effect on crop, c (Glycine max)” value in the data set on Glycine max is 0 (Herbicidal ratio of 5% or less (almost no effect)). The “effect on crop, e (Triticum aestivum)” value in the data set with Triticum aestivum is recorded as 0 (Herbicidal ratio of 5% or less (almost no effect)). Also, the “effect on crop, b (Zea mays)” value with Zea mays was 0 (Herbicidal ratio of 5% or less (almost no effect)). Besides, the “effect on crop, f (Beta vulgaris ssp. vulgaris)” value in data set [3] is on record as 0 (Herbicidal ratio of 5% or less (almost no effect)).
Take `CCn1nc2c(C(=O)Nc3ncnn3C)ccc(C(F)(F)F)n2c1=O` [6-007]: the “herbicidal effect, K (Lolium multiflorum Lam.)” value with Lolium multiflorum Lam. is listed as 0 (Herbicidal ratio of 5% or less (almost no effect)). Moreover, the “herbicidal effect, L (Apera spica-venti.)” value in the data set with Apera spica-venti. was 0 (Herbicidal ratio of 5% or less (almost no effect)). Besides, the “herbicidal effect, J (Alopecurus myosuroides)” value in the data set on Alopecurus myosuroides is given as 0 (Herbicidal ratio of 5% or less (almost no effect)). The “herbicidal effect, O (Chenopodium album)” value in the data set on Chenopodium album was 3 (Herbicidal ratio of 40% or more and less than 70%). The “herbicidal effect, F (Digitaria ciliaris)” value with Digitaria ciliaris is listed as 0 (Herbicidal ratio of 5% or less (almost no effect)). Besides, the “herbicidal effect, Q (Galium spurium)” value in the data set on Galium spurium is 0 (Herbicidal ratio of 5% or less (almost no effect)). Also, in the data set with Amaranthus retroflexus, the “herbicidal effect, N (Amaranthus retroflexus)” value was 3 (Herbicidal ratio of 40% or more and less than 70%). Also, the “herbicidal effect, G (Setaria viridis)” value in the data set with Setaria viridis is 0 (Herbicidal ratio of 5% or less (almost no effect)). Further, in data set [1], the “herbicidal effect, H (Echinochloa crus-galli var. crus-galli)” value is listed as 0 (Herbicidal ratio of 5% or less (almost no effect)). For the same compound, the “herbicidal effect, R (Veronica persica)” value in the data set on Veronica persica was 0 (Herbicidal ratio of 5% or less (almost no effect)). Besides, the “herbicidal effect, P (Stellaria media)” value in the data set on Stellaria media is 0 (Herbicidal ratio of 5% or less (almost no effect)). For the same compound, the “herbicidal effect, M (Abutilon theophrasti)” value in the data set with Abutilon theophrasti is 2 (Herbicidal ratio of 20% or more and less than 40%). The “herbicidal effect, I (Avena fatua)” value in the data set with Avena fatua is given as 0 (Herbicidal ratio of 5% or less (almost no effect)). The “effect on crop, g (Brassica campestris L.)” value with Brassica campestris L. is 0 (Herbicidal ratio of 5% or less (almost no effect)). Further, the “effect on crop, d (directly sowed Oryza sativa)” value in data set [2] was 2 (Herbicidal ratio of 20% or more and less than 40%). The “effect on crop, c (Glycine max)” value in the data set with Glycine max was 0 (Herbicidal ratio of 5% or less (almost no effect)). Also, the “effect on crop, e (Triticum aestivum)” value in the data set with Triticum aestivum is 0 (Herbicidal ratio of 5% or less (almost no effect)). The “effect on crop, b (Zea mays)” value in the data set on Zea mays is on record as 0 (Herbicidal ratio of 5% or less (almost no effect)). The “effect on crop, f (Beta vulgaris ssp. vulgaris)” value in data set [3] was 3 (Herbicidal ratio of 40% or more and less than 70%).
Take `CC(C)c1nnc2c(C(=O)Nc3nnnn3C)cc(C(F)(F)F)cn12` [2-018]: in the data set with Lolium multiflorum Lam. (setting [4]), the “K: herbicidal effect on Lolium multiflorum Lam.” value was 0 (Herbicidal ratio of 5% or less (almost no effect)). In addition, the “L: herbicidal effect on Apera spica-venti.” value in the data set with Apera spica-venti. (setting [4]) was 0 (Herbicidal ratio of 5% or less (almost no effect)). Moreover, the “J: herbicidal effect on Alopecurus myosuroides” value in the data set on Alopecurus myosuroides (setting [4]) is recorded as 0 (Herbicidal ratio of 5% or less (almost no effect)). In the data set with Chenopodium album (setting [4]), the “O: herbicidal effect on Chenopodium album” value is 3 (Herbicidal ratio of 40% or more and less than 70%). In addition, the “F: herbicidal effect on Digitaria ciliaris” value in the data set on Digitaria ciliaris (setting [4]) was 2 (Herbicidal ratio of 20% or more and less than 40%). Besides, the “Q: herbicidal effect on Galium spurium” value in the data set with Galium spurium (setting [4]) is 1 (Herbicidal ratio of 5% or more and less than 20%). Also, the “N: herbicidal effect on Amaranthus retroflexus” value in the data set on Amaranthus retroflexus (setting [4]) was 3 (Herbicidal ratio of 40% or more and less than 70%). Moreover, the “G: herbicidal effect on Setaria viridis” value in the data set with Setaria viridis (setting [4]) was 1 (Herbicidal ratio of 5% or more and less than 20%). In addition, the “H: herbicidal effect on Echinochloa crus-galli var. crus-galli” value in data set [1] (setting [4]) was 1 (Herbicidal ratio of 5% or more and less than 20%). Also, the “R: herbicidal effect on Veronica persica” value with Veronica persica (setting [4]) was 2 (Herbicidal ratio of 20% or more and less than 40%). Besides, the “P: herbicidal effect on Stellaria media” value in the data set on Stellaria media (setting [4]) is reported as 0 (Herbicidal ratio of 5% or less (almost no effect)). The “M: herbicidal effect on Abutilon theophrasti” value with Abutilon theophrasti (setting [4]) was 3 (Herbicidal ratio of 40% or more and less than 70%). The “I: herbicidal effect on Avena fatua” value in the data set with Avena fatua (setting [4]) was 0 (Herbicidal ratio of 5% or less (almost no effect)). Besides, in the data set on Brassica campestris L. (setting [4]), the “g: effect on crop, Brassica campestris L.” value is listed as 0 (Herbicidal ratio of 5% or less (almost no effect)). Further, in data set [2] (setting [4]), the “b: effect on crop, directly sowed Oryza sativa” value is listed as 0 (Herbicidal ratio of 5% or less (almost no effect)). In addition, the “d: effect on crop, Glycine max” value in the data set on Glycine max (setting [4]) is given as 0 (Herbicidal ratio of 5% or less (almost no effect)). Moreover, the “e: effect on crop, Triticum aestivum” value in the data set with Triticum aestivum (setting [4]) is on record as 0 (Herbicidal ratio of 5% or less (almost no effect)). Further, the “c: effect on crop, Zea mays” value with Zea mays (setting [4]) was 0 (Herbicidal ratio of 5% or less (almost no effect)). The “f: effect on crop, Beta vulgaris ssp. vulgaris” value in [3] (setting [4]) was 1 (Herbicidal ratio of 5% or more and less than 20%).
